A word on the Tmax: it is the time at which the peak concentration occurs.

Structures can show the parent of a compound that is named as a salt. Where two headings read alike, the source gives them in different places.

The subject of data set [1] is oral mucosa. Nature of the data set: Visual assessment of delivery sites for damage or irritation of mucosal tissues. Conditions: 3 mg particles 38-53 μm, needleless syringe, 24-48 hours after delivery, 14 subjects. It is filed as in vivo, human. As for the experimental part: A randomized, double-blind, negatively controlled study was carried out in normal, healthy human subjects as follows. Initially, a single 3 mg dose of lignocaine HCL particles sized between 38 and 53 μm was delivered from a needleless syringe constructed in accordance with the invention. The lignocaine was delivered to the oral mucosa adjacent to the number 12 and 22 lateral incisors in 14 trial subjects. The delivery sites were then visually assessed for evidence of damage or irritation to the mucosal tissues.

Data set [2] deals with oral mucosa. Details: species or system human. Conditions: in vivo. The protocol:
In a second study, a single 3.0 mg dose of lignocaine HCL particles (as above) was delivered using a needleless syringe, and a single 0.2 mL dose of 2% lignocaine HCL was delivered via needle-syringe injection. Pain associated with the administration of each treatment was scored in all 14 subjects using a 100 mm visual analogue scale immediately after each treatment, wherein 100% indicates a painful treatment, and 0% indicates a pain-free treatment. The needleless syringe employed in the study was operated using 40 bar helium driving gas to expel anaesthetic particles from a flexible, eversible dome-shaped membrane comprised of a 400 μm, 6 mm polyurethane film.

The subject of data set [3] is oral mucosa. Nature of the data set: Local anaesthesia: pain response to probing of treated oral mucosa, visual analogue scale. Conditions: 3.0 mg particles by needleless syringe. It is filed as in vivo, human. The protocol: A randomized, double-blind study was then carried out as follows. Treatments were given to 14 subjects over the course of three visits. The treatments provided to the subjects in each visit were either a single 3.0 mg dose of Lignocaine HCL particles from the above-described needleless syringe device, or 0.0 mg (as a blinded negative control). Accordingly, treatments provided over the course of the three visits were either: two actual (3.0 mg) doses of the anaesthetic particles and one placebo; or two placebos and one actual (3.0 mg) dose. Pain stimulus was provided by probing oral mucosa with the back of a 27G dental needle, wherein the probe sequence was a probe on an untreated area of the mucosa, and then a probe on the treated area of the mucosa 1 minute post delivery. Again, the pain associated with the probe of the untreated and treated areas was scored on visual analogue scales using the above scoring methods immediately after each probe.

Data set [4] in a line: Serum testosterone pharmacokinetics after transmucosal (OralJect needleless syringe) or subcutaneous delivery. Conditions: for Cmax: 2 mg. Format: in vivo, female New Zealand White rabbit. The protocol: Testosterone (Sigma Chemicals) was milled and sieved into a particle size range (approximately 50-100 μm) suitable for transmucosal delivery from a needleless syringe using standard stainless steel mesh sieves. Female New Zealand White rabbit subjects weighing between 2.2-2.8 kg were used and allowed food and water ad libitum. The rabbits (n=8) were randomly assigned to one of two treatment groups. The first treatment group received testosterone (2.0 mg dose) as a suspension in 35% polyvinylpyrrolidone C-30 in water (6 mg/g testosterone concentration) via subcutaneous injection. The second treatment group received testosterone (2.0 mg dose of testosterone particles ranging from 53-75 μm) as two 1.0 mg transmucosal administrations from an OralJect™ needleless syringe device abutted against the cheek mucosa.
Whole blood (1.0 ml) was taken at times 0, 0.5, 1, 2, 4, 6, 8, 12, 24 and 48 hours, the serum aspirated and assayed for testosterone by radioimmunoassay (DPC). The OralJect™ device is a prototype device of the present invention that is actuated by helium at 40 bar.

On to `CCN(CC)CC(=O)Nc1c(C)cccc1C` [lignocaine HCL, lignocaine hydrochloride], for which, in data set [1], the “tissue reaction at delivery site” value is “no evidence of any tissue reaction was observed”. Also, in data set [2], the “pain associated with administration (mean VAS score)” value was determined as 49.9%. In data set [3] (1 minute post delivery), the “level of local anaesthesia relative to placebo treatments” value is “superior level of local anaesthesia relative to the placebo treatments”. Moreover, in data set [3] (probe 1 minute post delivery, untreated probe 55.6%, placebo 30.6%), the “pain response score to probe of treated area (mean VAS)” value amounted to 15.0%.

For the compound `C[C@]12CC[C@H]3[C@@H](CCC4=CC(=O)CC[C@@]43C)[C@@H]1CC[C@@H]2O` [testosterone], the “Cmax comparison between treatments” value in data set [4] (OralJect transmucosal vs subcutaneous, 2.0 mg, rabbit) is recorded as “not significantly different between treatments although there was a tendency for it to be lower following OralJect™ administration”. Moreover, the “pharmacokinetic profile, transmucosal vs subcutaneous” value in data set [4] (OralJect transmucosal vs subcutaneous, rabbit) is given as “markedly different from that achieved following subcutaneous administration”. In addition, in data set [4] (OralJect transmucosal, 2.0 mg, rabbit), the “% BA (% bioavailability)” value is listed as ~48.3%. Moreover, in data set [4] (OralJect transmucosal, post administration, possible depot effect), the “time of second minor peak of serum testosterone” value was 12 h. Moreover, the Cmax was 25.5 ± 3.5 nM in data set [4] (rabbit, serum, OralJect transmucosal (cheek mucosa), 2 x 1.0 mg particles 53-75 μm, helium 40 bar, rabbit, read-out: Cmax (mean maximum serum concentration)); 34.8 ± 6.9 nM in data set [4] (rabbit, serum, sc, subcutaneous injection, 2.0 mg suspension in 35% polyvinylpyrrolidone C-30 in water, rabbit, read-out: Cmax (mean maximum serum concentration)); 26.9 to 55.2 nM in data set [4] (rabbit, serum, sc, subcutaneous injection, 2.0 mg, rabbit, read-out: Cmax range). In data set [4] (rabbit, serum, OralJect transmucosal, 2.0 mg, in all animals), the time of peak concentration (Tmax) was 30 min.
